# Tests used:
# native tau aggregates = test: TAU radioligand in-vitro displacement assay ([3H]T808 autoradiography on AD brain sections); type: binding; conditions: human AD brain sections; radioligand [3H]T808 10 nM; 50 mM Tris pH 7.4, room temperature, 30 min
# Method: This in vitro binding assay assesses the affinity of compounds for native tau aggregates. The compounds are co-incubated with the well-established tau specific radioligand [^3H]T808 and the compound's displacement potency of [^3H]T808 binding is determined by in vitro autoradiography using human Alzheimer's disease (AD) brain sections (see FIG. 2).
# AD human brains are purchased from Banner Sun Health Research Institute (Sun City, Ariz., USA). Pathological diagnosis of AD is made according to standard NIA-Reagan Institute criteria based on neuropathological data. The radioligand [^3H]T808 was synthesized in-house ([^3H]-2-[4-(2-Fluoro-ethyl)-piperidin-1-yl]-benzo[4,5]imidazo[1,2-a]pyrimidine, radiochemical purity 99.0%). […] For the autoradiography FujiFilm Imaging Plates (BAS-IP TR 2025) are exposed to the sections and read with a FujiFilm IP reader (BAS-5000). […]
# The signal intensity (Dens−PSL/mm2) in the region of interest (ROI) of the autoradiogram is quantified with the software MCID analysis (version 7.0, Imaging Research Inc.). The specific binding (SB) of [^3H]T808 binding in absence or in presence of a compound is calculated by subtracting the non-specific binding signal in the white matter, thus yielding SB[3H]T808 only and SBcompound. The % displacement by the various compounds is calculated as following: % displacement=100−(SBcompound/SB[3H]T808 only)*100. […]
# tau aggregates = test: Autoradiogram of the tritiated radioligand on a human cortical brain section (Braak V AD patient); type: binding; conditions: radioligand concentration 3.2 nM, Braak V staged AD patient
# Method: FIG. 1: Autoradiogram of ^3H-2-(6-fluoro-pyridin-3-yl)-9H-dipyrido[2,3-b;3′,4′-d]pyrrole.
# Autoradiogram of ^3H-2-(6-fluoro-pyridin-3-yl)-9H-dipyrido[2,3-b;3′,4′-d]pyrrole incubated with a human cortical brain section obtained from a Braak V staged AD patient. The radioligand concentration was 3.2 nM.
# Chain of tau aggregates (P10636 623-708 limits assumed): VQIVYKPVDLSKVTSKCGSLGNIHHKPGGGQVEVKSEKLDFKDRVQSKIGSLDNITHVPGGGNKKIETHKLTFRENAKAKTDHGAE
% displacement of [^3H]T808 (10 nM) (native tau aggregates) [%],Molecule,staining pattern in autoradiogram (tau aggregates)
43,"Fc1ccc(-c2ccc3c(n2)[nH]c2ccncc23)cn1 [Example 1, 2-(6-Fluoro-pyridin-3-yl)-9H-dipyrido[2,3-b;3′,4′-d]pyrrole]",–
–,"^3H-2-(6-Fluoro-pyridin-3-yl)-9H-dipyrido[2,3-b;3′,4′-d]pyrrole [Example 2]",punctate staining of tau aggregates in a layered distribution pattern
